Target: T1, complex I (NADH ubiquinone reductase) (Rattus norvegicus, UniProt A6K8N6+P03889+Q641Y2)
T1 construct: gene Ndufs2; native multi-subunit complex in mitochondria isolated from frozen rat liver; with NADH dehydrogenase [ubiquinone] flavoprotein 1, mitochondrial; NADH dehydrogenase [ubiquinone] flavoprotein 2, mitochondrial; NADH-ubiquinone oxidoreductase 75 kDa subunit, mitochondrial; NADH dehydrogenase [ubiquinone] iron-sulfur protein 3, mitochondrial; NADH dehydrogenase [ubiquinone] iron-sulfur protein 8, mitochondrial; NADH-ubiquinone oxidoreductase chain 2; NADH-ubiquinone oxidoreductase chain 3; NADH-ubiquinone oxidoreductase chain 4; NADH-ubiquinone oxidoreductase chain 4L; NADH-ubiquinone oxidoreductase chain 5; NADH-ubiquinone oxidoreductase chain 6
Test: NADH oxidation at […] nm, rotenone-sensitive rate, mitochondria from dosed rats
Settings: ex vivo after 400 ppm dietary rotenone for 1, 3 or 14 days, no in vitro dose, decylubiquinone, pH 7.2, KCN and antimycin present

T1 sequence (Q641Y2 34-463): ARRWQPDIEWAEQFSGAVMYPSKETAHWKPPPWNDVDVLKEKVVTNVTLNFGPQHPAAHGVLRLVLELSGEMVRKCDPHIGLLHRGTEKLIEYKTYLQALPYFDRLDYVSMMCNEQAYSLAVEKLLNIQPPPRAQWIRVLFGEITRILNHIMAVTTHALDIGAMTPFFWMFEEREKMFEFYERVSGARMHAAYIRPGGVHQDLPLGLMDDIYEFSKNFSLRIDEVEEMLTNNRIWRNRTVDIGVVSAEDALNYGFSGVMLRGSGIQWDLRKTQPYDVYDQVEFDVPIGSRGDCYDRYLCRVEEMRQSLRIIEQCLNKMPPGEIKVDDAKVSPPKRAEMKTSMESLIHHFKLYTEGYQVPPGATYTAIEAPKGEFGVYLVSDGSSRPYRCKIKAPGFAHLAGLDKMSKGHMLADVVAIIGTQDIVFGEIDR
T1 sequence (A6K8N6 39-218): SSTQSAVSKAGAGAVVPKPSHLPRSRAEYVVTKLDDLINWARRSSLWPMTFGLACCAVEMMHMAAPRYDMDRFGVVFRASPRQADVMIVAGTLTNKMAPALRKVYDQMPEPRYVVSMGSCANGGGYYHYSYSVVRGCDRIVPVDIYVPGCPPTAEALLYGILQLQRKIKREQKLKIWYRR
T1 sequence (P03889 whole entry): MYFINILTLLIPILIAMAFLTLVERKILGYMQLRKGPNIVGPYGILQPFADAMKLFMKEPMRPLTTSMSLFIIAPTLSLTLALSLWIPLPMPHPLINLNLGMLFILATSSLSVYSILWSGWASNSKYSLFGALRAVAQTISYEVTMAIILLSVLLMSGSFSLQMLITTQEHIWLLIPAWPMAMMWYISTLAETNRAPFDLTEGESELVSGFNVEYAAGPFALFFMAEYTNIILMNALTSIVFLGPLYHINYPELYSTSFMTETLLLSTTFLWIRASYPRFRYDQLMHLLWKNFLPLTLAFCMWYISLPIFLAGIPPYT
T1 sequence (Q5XIH3 21-464 partner): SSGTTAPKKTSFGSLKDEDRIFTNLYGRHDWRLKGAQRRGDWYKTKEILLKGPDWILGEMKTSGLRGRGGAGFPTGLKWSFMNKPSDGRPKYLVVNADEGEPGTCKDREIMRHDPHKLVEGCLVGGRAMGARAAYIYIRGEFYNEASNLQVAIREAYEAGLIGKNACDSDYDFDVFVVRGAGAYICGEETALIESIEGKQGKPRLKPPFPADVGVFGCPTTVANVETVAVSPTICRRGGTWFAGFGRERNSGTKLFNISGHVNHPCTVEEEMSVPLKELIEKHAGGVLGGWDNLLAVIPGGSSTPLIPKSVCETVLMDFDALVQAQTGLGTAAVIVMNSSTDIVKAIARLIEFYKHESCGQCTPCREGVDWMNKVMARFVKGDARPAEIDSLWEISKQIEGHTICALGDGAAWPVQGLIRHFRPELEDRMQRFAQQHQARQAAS

C=C(C)[C@H]1Cc2c(ccc3c2O[C@@H]2COc4cc(OC)c(OC)cc4[C@@H]2C3=O)O1 [rotenone]
% decrease of complex I activity vs time-matched control: 70–80%

— paper PMC5379642, “Mechanistic Investigations of the Mitochondrial Complex I Inhibitor Rotenone in the Context of Pharmacological and Safety Evaluation” (Scientific Reports, 2017)
